Experimental data from patent US20240368177A1, “5-AMINO-6,8-DIHYDRO-1H-FURO[3,4-d]PYRROLO[3,2-b]PYRIDINE-2-CARBOXAMIDE DERIVATIVES AS MTA-COOPERATIVE INHIBITORS OF PRMT5” (BeiGene Switzerland GmbH, priority 2023, published 2024).

What was measured:
[1] = system: HCT116-MTAP-KO; experiment: Cell killing in HCT116 isogenic pair (Cell Titer-Glo viability), MTAP knock-out cells; type: cell-based, human; conditions: 6 days incubation, 0-10 μM, * = more than 50% viability inhibition at tested concentration without a full curve
How it was run: (§1)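 HCT116 MTAP-knockout or mock-knockout (MTAP wildtype) cells in RPMI 1640 with 10% FBS were seeded overnight, then exposed to test compound at 0–10 μM final for 6 days at 37° C. Viability was measured by CellTiter-Glo luminescence and IC50 was fitted.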

[2] = system: HCT116-mock-RNA-KO; experiment: Cell killing in HCT116 isogenic pair (Cell Titer-Glo viability), mock knock-out cells with MTAP wildtype genotype; type: cell-based, human; conditions: 6 days incubation, 0-10 μM
How it was run: as §1

Compound: CN(C(=O)c1cc2nc(N)c3c(c2[nH]1)COC3)[C@@H]1COC2(CC2)c2cc(C(F)(F)F)cc(F)c21 [Example 168, (S)-5-amino-N-(5′-fluoro-7′-(trifluoromethyl)spiro[cyclopropane-1,1′-isochroman]-4′-yl)-N-methyl-6,8-dihydro-1H-furo[3,4-d]pyrrolo[3,2-b]pyridine-2-carboxamide]
- IC50 ([1]; Homo sapiens, HCT-116, 144 h): 8.4 nM
- IC50 ([2]; Homo sapiens, HCT-116, 144 h): 2110 nM

Compound: C[C@H]1OCc2c1c(N)nc1cc(C(=O)N(C)[C@H]3COC4(CC4)c4cc(C(F)(F)F)cc(F)c43)[nH]c21 [Example 169, (R)-5-amino-N—((R)-5′-fluoro-7′-(trifluoromethyl)spiro[cyclopropane-1,1′-isochroman]-4′-yl)-N,6-dimethyl-6,8-dihydro-1H-furo[3,4-d]pyrrolo[3,2-b]pyridine-2-carboxamide]
- IC50 ([1]; Homo sapiens, HCT-116, 144 h): 565 nM
- IC50 ([2]; Homo sapiens, HCT-116, 144 h): 2110 nM

Compound: C[C@H]1OCc2c1c(N)nc1cc(C(=O)N(C)[C@@H]3COC4(CC4)c4cc(C(F)(F)F)cc(F)c43)[nH]c21 [Example 170, (R)-5-amino-N—((S)-5′-fluoro-7-(trifluoromethyl)spiro[cyclopropane-1,1′-isochroman]-4′-yl)-N,6-dimethyl-6,8-dihydro-1H-furo[3,4-d]pyrrolo[3,2-b]pyridine-2-carboxamide]
- IC50 [1]: 4.4 nM
- IC50 [2]: 1010 nM

Compound: C[C@H]1OCc2c1c(N)nc1cc(C(=O)N(C)[C@@H]3COC4(CC4)c4cc(C5CC5)ccc43)[nH]c21 [Example 171, (R)-5-amino-N—((S)-7′-cyclopropylspiro[cyclopropane-1,1′-isochroman]-4′-yl)-N,6-dimethyl-6,8-dihydro-1H-furo[3,4-d]pyrrolo[3,2-b]pyridine-2-carboxamide]
- IC50 ([1]; Homo sapiens, HCT-116, 144 h): 39 nM
- IC50 ([2]; Homo sapiens, HCT-116, 144 h): 3030 nM

Compound: CN(C(=O)c1cc2nc(N)c3c(c2[nH]1)COC3)[C@@H]1COC2(CC2)c2cc(C3CC3)ccc21 [Example 172, (S)-5-amino-N-(7′-cyclopropylspiro[cyclopropane-1,1′-isochroman]-4′-yl)-N-methyl-6,8-dihydro-1H-furo[3,4-d]pyrrolo[3,2-b]pyridine-2-carboxamide]
- IC50 ([1]; Homo sapiens, HCT-116, 144 h): 33 nM
- IC50 ([2]; Homo sapiens, HCT-116, 144 h): 5050 nM

Compound: C[C@H](c1ccc(C2CC2)cc1F)N(C)C(=O)c1cc2nc(N)c3c(c2[nH]1)COC3 [Example 173, (R)-5-amino-N-(1-(4-cyclopropyl-2-fluorophenyl)ethyl)-N-methyl-6,8-dihydro-1H-furo[3,4-d]pyrrolo[3,2-b]pyridine-2-carboxamide]
- IC50 ([1]; Homo sapiens, HCT-116, 144 h): 67 nM
- IC50 ([2]; Homo sapiens, HCT-116, 144 h): 5920 nM

Compound: C[C@@H](c1ccc(C2CC2)cc1F)N(C)C(=O)c1cc2nc(N)c3c(c2[nH]1)COC3 [Example 174, (S)-5-amino-N-(1-(4-cyclopropyl-2-fluorophenyl)ethyl)-N-methyl-6,8-dihydro-1H-furo[3,4-d]pyrrolo[3,2-b]pyridine-2-carboxamide]
- IC50 ([1]; Homo sapiens, HCT-116, 144 h): 478 nM
- IC50 ([2]; Homo sapiens, HCT-116, 144 h): 6070 nM

Compound: CCN(C(=O)c1cc2nc(N)c3c(c2[nH]1)CO[C@@H]3C)[C@H](C)c1ccc(C2CC2)cc1F [Example 175, (R)-5-amino-N—((R)-1-(4-cyclopropyl-2-fluorophenyl)ethyl)-N-ethyl-6-methyl-6,8-dihydro-1H-furo[3,4-d]pyrrolo[3,2-b]pyridine-2-carboxamide]
- IC50 ([1]; Homo sapiens, HCT-116, 144 h): 14 nM
- IC50 ([2]; Homo sapiens, HCT-116, 144 h): 704 nM

Compound: CCN(C(=O)c1cc2nc(N)c3c(c2[nH]1)CO[C@@H]3C)[C@@H](C)c1ccc(C2CC2)cc1F [Example 176, (R)-5-amino-N—((S)-1-(4-cyclopropyl-2-fluorophenyl)ethyl)-N-ethyl-6-methyl-6,8-dihydro-1H-furo[3,4-d]pyrrolo[3,2-b]pyridine-2-carboxamide]
- IC50 ([1]; Homo sapiens, HCT-116, 144 h): 452 nM
- IC50 ([2]; Homo sapiens, HCT-116, 144 h): 1780 nM

Compound: CCN(C(=O)c1cc2nc(N)c3c(c2[nH]1)COC3)[C@H](C)c1ccc(C2CC2)cc1F [Example 177, (R)-5-amino-N-(1-(4-cyclopropyl-2-fluorophenyl)ethyl)-N-ethyl-6,8-dihydro-1H-furo[3,4-d]pyrrolo[3,2-b]pyridine-2-carboxamide]
- IC50 ([1]; Homo sapiens, HCT-116, 144 h): 74 nM
- IC50 ([2]; Homo sapiens, HCT-116, 144 h): 2690 nM

Compound: CCN(C(=O)c1cc2nc(N)c3c(c2[nH]1)COC3)[C@@H](C)c1ccc(C2CC2)cc1F [Example 178, (S)-5-amino-N-(1-(4-cyclopropyl-2-fluorophenyl)ethyl)-N-ethyl-6,8-dihydro-1H-furo[3,4-d]pyrrolo[3,2-b]pyridine-2-carboxamide]
- IC50 ([1]; Homo sapiens, HCT-116, 144 h): 1040 nM
- IC50 ([2]; Homo sapiens, HCT-116, 144 h): 3270 nM

Compound: CN(C(=O)c1cc2nc(N)c3c(c2[nH]1)COC3)[C@@H]1COC2(CC2)c2cc(Br)ccc21 [Example 179, (S)-5-amino-N-(7′-bromospiro[cyclopropane-1,1′-isochroman]-4′-yl)-N-methyl-6,8-dihydro-1H-furo[3,4-d]pyrrolo[3,2-b]pyridine-2-carboxamide]
- IC50 ([1]; Homo sapiens, HCT-116, 144 h): 24 nM
- IC50 ([2]; Homo sapiens, HCT-116, 144 h): 4390 nM

Compound: C[C@H]1OCc2c1c(N)nc1cc(C(=O)N(C)[C@@H]3COC4(CC4)c4cc(Br)ccc43)[nH]c21 [Example 180, (R)-5-amino-N—((S)-7′-bromospiro[cyclopropane-1,1′-isochroman]-4′-yl)-N,6-dimethyl-6,8-dihydro-1H-furo[3,4-d]pyrrolo[3,2-b]pyridine-2-carboxamide]
- IC50 ([1]; Homo sapiens, HCT-116, 144 h): 20 nM
- IC50 ([2]; Homo sapiens, HCT-116, 144 h): 3570 nM

Compound: CN1CC[C@@H](N(C)C(=O)c2cc3nc(N)c4c(c3[nH]2)COC4)c2ccc(C(F)(F)F)cc21 [Example 181, (R)-5-amino-N-methyl-N-(1-methyl-7-(trifluoromethyl)-1,2,3,4-tetrahydroquinolin-4-yl)-6,8-dihydro-1H-furo[3,4-d]pyrrolo[3,2-b]pyridine-2-carboxamide]
- IC50 ([1]; Homo sapiens, HCT-116, 144 h): 15 nM
- IC50 ([2]; Homo sapiens, HCT-116, 144 h): 1800 nM
